# Source: article PMC12670164, “In vitro and clinical data demonstrate negligible risk of drug–drug interactions with opelconazole, a novel inhaled antifungal agent” (Journal of Antimicrobial Chemotherapy, 2025)
# “And” between values parts separate entries of the source, which are not always exact repeats. Equal values may be shown once.
# Assays:
# CYP isoforms = assay: Initial CYP inhibition study in human liver microsomes; assay type: in vitro ADME; details: opelconazole 0.03 to 5 μM
# Protocol: The potential for opelconazole to inhibit CYP isoforms was tested in vitro in human liver microsomes. […] Preincubation of the human liver microsomes for periods of 0 min without NADPH and 30 min with NADPH, plus 30 min without NADPH were included to assess for a time-dependent inhibition effect. Two structurally diverse substrates (testosterone and midazolam) were tested to assess substrate-dependent inhibition.
# [1] = Phase 1 study: plasma pharmacokinetics of inhaled opelconazole in healthy volunteers; assay type: in vivo, human
# Protocol: The study was conducted from February 2023 through June 2023 in accordance with the Declaration of Helsinki, Good Clinical Practice, and the International Conference on Harmonisation guidelines (South African National Clinical Trial Registry code: DOH-27-122022-5196). The study documents were approved by an Independent Ethics Committee. Study participants provided written informed consent prior to any study procedures.
# Screening occurred within 28 days prior to the first dosing day (Figure 1). Participants were admitted to the study centre on Day −1 and were required to stay there until approximately 48 h after the morning dosing on Day 15. They returned for subsequent PK blood samples at approximately 72 (Day 18), 168 (Day 22) and 336 h (Day 29) after the last morning dosing. On Days 1 and 15, participants received oral midazolam 7.5 mg and oral caffeine 180 mg together after food ingestion.
# Standard doses of midazolam and caffeine were used to characterize their PK profiles. The dose selected for opelconazole, 14.8 mg twice daily, is the dose utilized in the clinical development programme for the treatment and prevention of invasive pulmonary aspergillosis (IPA). Following 14 days of twice daily dosing, plasma concentrations were expected to be within 80% of steady-state concentrations and deemed appropriate to assess potential interactions with the probe substrates.
# Study participants inhaled opelconazole 14.8 mg twice daily using the PARI LC SPRINT® jet nebuliser for 14 days, starting on Day 2 through Day 15. Morning doses of opelconazole on Day 2 and Day 15 were taken 30 min after food ingestion. Blood samples were taken for PK analyses for midazolam, metabolites of midazolam (1-OH-midazolam and 4-OH-midazolam) and caffeine on Days 1 and 15 at pre-dose (0 h), at 0.5, 1, 1.5, 2, 3, 4, 6, 8, 10, 12, 16, 24, 30, 36 and 48 h post-dose on Days 1 and 15. Blood samples were taken for PK analyses for opelconazole as follows: on Day 2 at pre-morning dose (0 h), at 0.5, 1, 2, 4, 6, 8, 12 and 24 h post-morning dose; on Day 15: at pre-morning-dose (0 h), at 0.5, 1, 2, 4, 6, 8, 10, 12, 24 (Day 16), 30 (Day 16), 36 (Day 16), 48 (Day 17), 72 (Day 18), 168 (Day 22) and 336 (Day 29) h post-morning-dosing.
# Primary PK parameters assessed for midazolam and its metabolites (1-OH-midazolam, 4-OH-midazolam), caffeine and opelconazole were Cmax and AUC, from time zero to t, where t is the time of the last quantifiable concentration (AUC(0−t); i.e., AUC(0−12) and AUC(0−24)). Secondary PK parameters were AUC(0−∞), Tmax, apparent t1/2 and accumulation ratio (RO) of opelconazole only.
# [2] = Day 2, inhaled 14.8 mg twice daily
# [3] = Day 15, after 14 days inhaled 14.8 mg twice daily
structure (smiles),measurement,setting,value
Cc1cc(N2CCN(c3ccc(C(=O)Nc4ccc(F)cc4)cc3)CC2)ccc1OC[C@@H]1CO[C@@](Cn2cncn2)(c2ccc(F)cc2F)C1 [opelconazole],"CYP inhibition, initial study",CYP isoforms,limited to CYP3A4
same,"AUC(0–12 h), geometric mean (CV%)","[1]; Day 2 (first dosing day), inhaled 14.8 mg twice daily",7.81 (27.8) h·ng/mL
same,"AUC(0-t), geometric mean (CV%)",[1]; [2],19.9 (29.4) h·ng/mL
same,"AUC(0–24 h), geometric mean (CV%)",[1]; [2],19.6 (29.4) h·ng/mL
same,"Cmax, geometric mean (CV%)",[1]; [2],0.91 (29.3) ng/mL
same,"Tmax, median (range)",[1]; [2],"6.17 (2.17, 12.1) h"
same,"AUC(0-t), geometric mean (CV%)",[1]; [3],1270 (45.8) h·ng/mL
same,"AUC(0–12 h), geometric mean (CV%)",[1]; [3],69.8 (45.4) h·ng/mL
same,"AUC(0–24 h), geometric mean (CV%)",[1]; [3],136 (46.7) h·ng/mL
same,"Cmax, geometric mean (CV%)",[1]; [3],7.07 (47.2) ng/mL
same,"Tmax, median (range)",[1]; [3],"4.17 (0.67, 48.0) h"
same,"t½, geometric mean (CV%)",[1]; [3],188 (21.4) h
same,"AUC(0−∞), geometric mean (CV%)","[1]; Day 15, inhaled 14.8 mg twice daily, n=2",1720 (31.2) h·ng/mL
same,"RO (accumulation ratio) AUC(0–12 h) Day 15/Day 2, geometric mean (CV%)",[1]; inhaled 14.8 mg twice daily,8.93 (38.4)
same,"RO (accumulation ratio) AUC(0–24 h) Day 15/Day 2, geometric mean (CV%)",[1]; inhaled 14.8 mg twice daily,6.97 (35.8)
same,"RO (accumulation ratio) Cmax Day 15/Day 2, geometric mean (CV%)",[1]; inhaled 14.8 mg twice daily,7.77 (46.7)
same,observed RO (Day 15/Day 2) for AUC0–12h,[1]; inhaled 14.8 mg twice daily,8.9 fold
same,observed RO (Day 15/Day 2) for Cmax,[1]; inhaled 14.8 mg twice daily,7.8 fold
same,Cmax,"[1]; multiple inhaled doses, clinical dosing, read-out: systemic Cmax at steady state",10 nM and ≤ 10 nM
